Data set [1] in a line: logp: n-octanol/water partition coefficient by reversed phase HPLC. The note with it: h2o/ch3cn, read-out: logp (logarithm to base ten of the n-octanol/water partition coefficient). Type of data set: physicochemical. An excerpt:
*) logp: Logarithm to base ten of the n-octanol/water partition coefficient, determined by reversed phase HPLC analysis using H2 O/CH3 CN.
*^) logp: Logarithm to base ten of the noctanol/water partition
coefficient, determined by reversed phase HPLC analysis using H2

The subject of data set [2] is common spider mite (Tetranychus urticae). Description: Tetranychus test (OP resistant/dip treatment). Type of data set: in vivo. The note with it: Tetranychus urticae, 312 h, read-out: destruction in %. The protocol:
Tetranychus test (OP resistant/dip treatment)
Solvent: 3 parts by weight of dimethylformamide
(§1) Emulsifier: 1 part by weight of alkylaryl polyglycol ether
To produce a suitable preparation of active compound, 1 part by weight of active compound is mixed with the stated amount of solvent and the stated amount of emulsifier, and the concentrate is diluted with emulsifier-containing water to the desired concentrations.
Bean plants (Phaseolus vulgaris) which are heavily infested by all stages of the common spider mite (Tetranychus urticae) are dipped into the active compound preparation of the desired concentration.
After the desired period of time, the activity in % is determined. 100% means that all the spider mites have been killed; 0% means that none of the spider mites have been killed.

The subject of data set [3] is mustard beetle larvae (Phaedon cochleariae). Description: Phaedon larvae test. The note with it: Phaedon cochleariae, 168 h; active compound concentration 0.01%, after 7 days; read-out: destruction in %. It is filed as in vivo. The procedure:
Solvent: 7 parts by weight of dimethylformamide
as §1
To produce a suitable preparation of active compound, I part by weight of active compound is mixed with the stated amount of solvent and the stated amount of emulsifier, and the concentrate is diluted with water to the desired concentration.
Cabbage leaves (Brassica oleracea) are treated by being dipped into the active compound preparation of the desired concentration and are infested with mustard beetle larvae (Phaedon cochleariae), while the leaves are still moist.
After the desired period of time, the destruction in % is determined. 100% means that all the beetle larvae have been killed; 0% means that none of the beetle larvae have been killed.

The mark [4] stands for this setting: A isomer (possible geometric isomer).
[5] abbreviates: B isomer (possible geometric isomer).

Like-named read-outs stand apart in the source and are kept apart here.

For `CCCCCCCCC1COC2(CCC(c3ccc(C4COC(c5c(F)cccc5F)=N4)cc3)CC2)O1` (stereo not drawn) [Example 34], the chromatographic logP in data set [1] (setting [4]) was 7.19; in data set [1] (setting [5]), 7.28.
Take `CCCC1COC2(CCC(c3ccc(C4COC(c5c(F)cccc5F)=N4)cc3)CC2)O1` (stereo not drawn) [Example 28]: the chromatographic logP in data set [1] worked out at 4.52.
Turning to `CCCOc1ccc(-c2ccc(C3COC(c4c(F)cccc4F)=N3)cc2)cc1` (stereo not drawn) [(F), reference compound], the mortality at 0.0001 % in data set [2] was determined as 45%.
As to `COc1ccc(C2COC3(CCC(c4ccc(C5COC(c6c(F)cccc6F)=N5)cc4)CC3)OC2)cc1` (stereo not drawn) [Example 44], the chromatographic logP in data set [1] turned out to be 4.61.
Still for that read-out and setting: the result for `O=C1CCC(c2ccc(C3COC(c4c(F)cccc4Cl)=N3)cc2)CC1` (stereo not drawn) [Example 57] reads 3.09.
Take `Cc1cc(C)cc(OCC2COC3(CCC(c4ccc(C5COC(c6c(F)cccc6F)=N5)cc4)CC3)O2)c1` (stereo not drawn) [Example 42]: the chromatographic logP came to 5.44 in data set [1] (setting [4]) and 5.48 in data set [1] (setting [5]).
As for `COCC1COC2(CCC(c3ccc(C4COC(c5c(F)cccc5F)=N4)cc3)CC2)O1` (stereo not drawn) [Example 49], the chromatographic logP in data set [1] (setting [4]) is 3.57; in data set [1] (setting [5]), 3.6.
On to `CC1COC2(CCC(c3ccc(C4COC(c5c(F)cccc5F)=N4)cc3)CC2)O1` (stereo not drawn) [Example 50], for which, in data set [1], the chromatographic logP turned out to be 3.89.
For the compound `CC1CC(C)(C)OC2(CCC(c3ccc(C4COC(c5c(F)cccc5F)=N4)cc3)CC2)O1` (stereo not drawn) [Example 26], the chromatographic logP in data set [1] (setting [4]) is 5.12; in data set [1] (setting [5]), 5.19.
`C=CCCCCC1COC2(CCC(c3ccc(C4COC(c5c(F)cccc5F)=N4)cc3)CC2)O1` (stereo not drawn) [Example 54]: the chromatographic logP in data set [1] (setting [4]) came out at 5.65; in data set [1] (setting [5]) it was 5.7.
On to `Fc1cccc(F)c1C1=NC(c2ccc(C3CCC4(CC3)OCC(c3ccccc3)O4)cc2)CO1` (stereo not drawn) [Example 58], for which the chromatographic logP in data set [1] (setting [4]) is 4.78; in data set [1] (setting [5]), 4.87.
For `CC=CC1OC2(CCC(c3ccc(C4COC(c5c(F)cccc5F)=N4)cc3)CC2)OC1C=CC` (stereo not drawn) [Example 53] the same measures were 5.23 and 5.37.
With `Fc1cccc(F)c1C1=NC(c2ccc(C3CCC4(CC3)OCC(c3ccc(Cl)c(Cl)c3)O4)cc2)CO1` (stereo not drawn) [Example 60], the chromatographic logP in data set [1] worked out at 5.65.
Still for that read-out and setting: for `CC1(c2ccccc2)COC2(CCC(c3ccc(C4COC(c5c(F)cccc5F)=N4)cc3)CC2)OC1` (stereo not drawn) [Example 40] the value was 5.11.
For `CC1CCOC2(CCC(c3ccc(C4COC(c5c(F)cccc5F)=N4)cc3)CC2)O1` (stereo not drawn) [Example 29], the figures for the chromatographic logP in data set [1] (setting [4]) and in data set [1] (setting [5]) were 3.95 and 3.98, respectively.
In the case of `CCCCOCC1COC2(CCC(c3ccc(C4COC(c5c(F)cccc5F)=N4)cc3)CC2)O1` (stereo not drawn) [Example 51], the figures for the chromatographic logP in data set [1] (setting [4]) and in data set [1] (setting [5]) were 4.97 and 5, respectively.
For the compound `Fc1cccc(F)c1C1=NC(c2ccc(C3CCC4(CC3)OCCO4)cc2)CO1` (stereo not drawn) [Example 11], the chromatographic logP in data set [1] stood at 3.46.
For `Fc1cccc(F)c1C1=NC(c2ccc(C3CCC4(CC3)OCC(Br)(c3ccc(Cl)cc3)O4)cc2)CO1` (stereo not drawn) [Example 45], the chromatographic logP was 5.96 in data set [1] (setting [4]) and 6.2 in data set [1] (setting [5]).
Take `CC1(C)COC2(CCC(c3ccc(C4COC(c5c(F)cccc5F)=N4)cc3)CC2)OC1` (stereo not drawn) [Example 33]: the chromatographic logP in data set [1] was 4.5.
Turning to `CCC1COC2(CCC(c3ccc(C4COC(c5c(F)cccc5F)=N4)cc3)CC2)O1` (stereo not drawn) [Example 27], the chromatographic logP in data set [1] was found to be 4.43.
Turning to `CC(C)C1(c2ccc(Cl)cc2)COC2(CCC(c3ccc(C4COC(c5c(F)cccc5F)=N4)cc3)CC2)OC1` (stereo not drawn) [Example 47], the chromatographic logP in data set [1] amounted to 6.15.
For `OC1CCC(c2ccc(C3COC(c4c(F)cccc4F)=N3)cc2)CC1` (single isomer, unassigned) [Example 2, 2-(2,6-difluorophenyl)-4-[4-(4-hydroxycyclohexyl)phenyl]-1,3-oxazoline], the chromatographic logP in data set [1] worked out at 2.53.
Take `COC1(OC)CCC(c2ccc(C3COC(c4c(F)cccc4F)=N3)cc2)CC1` (stereo not drawn) [Example 8]: the mortality at 0.01 % in data set [3] was found to be 90%. In data set [1], the chromatographic logP came to 3.8.
As to `CCCCC1COC2(CCC(c3ccc(C4COC(c5c(F)cccc5F)=N4)cc3)CC2)O1` (stereo not drawn) [Example 30], the results for the chromatographic logP in data set [1] (setting [4]) and in data set [1] (setting [5]) were 5.35 and 5.4, respectively.
In the case of `Fc1cccc(F)c1C1=NC(c2ccc(C3CCC4(CC3)OCC(c3c(F)cccc3F)O4)cc2)CO1` (stereo not drawn) [Example 43], the chromatographic logP in data set [1] (setting [4]) was 4.77; in data set [1] (setting [5]) it was 4.86.
Take `C=CCOCC1COC2(CCC(c3ccc(C4COC(c5c(F)cccc5F)=N4)cc3)CC2)O1` (stereo not drawn) [Example 48]: in data set [1], the chromatographic logP was 4.21.
`Fc1cccc(F)c1C1=NC(c2ccc(C3CCC4(CC3)OCC(c3cccc(Cl)c3Cl)O4)cc2)CO1` (stereo not drawn) [Example 25]: the mortality at 0.0001 % in data set [2] is 98%. In data set [1], the chromatographic logP turned out to be 6.07.
For `CCCCCCCCCCCCCCCC1COC2(CCC(c3ccc(C4COC(c5c(F)cccc5F)=N4)cc3)CC2)O1` (stereo not drawn) [Example 18], the chromatographic logP in data set [1] stood at 9.
As to `OC1CCC(c2ccc(C3COC(c4c(F)cccc4F)=N3)cc2)CC1` (stereo not drawn) [Example 7], the chromatographic logP in data set [1] is 2.74.
With `Fc1cccc(F)c1C1=NC(c2ccc(C3CCC4(CC3)OCC(c3c(F)cccc3Cl)O4)cc2)CO1` (stereo not drawn) [Example 59], the chromatographic logP in data set [1] is 5.14.
Still for that read-out and setting: for `CCCCON=C1CCC(c2ccc(C3COC(c4c(F)cccc4F)=N3)cc2)CC1` (stereo not drawn) [Example 36] the value was 4.95.
`Fc1cccc(F)c1C1=NC(c2ccc(C3CCC(=NOCc4ccccc4Cl)CC3)cc2)CO1` (stereo not drawn) [Example 22]: in data set [2], the mortality at 0.0001 % was determined as 98%. Besides, the chromatographic logP in data set [1] is 5.21.
Take `CCC1(CC)COC2(CCC(c3ccc(C4COC(c5c(F)cccc5F)=N4)cc3)CC2)OC1` (stereo not drawn) [Example 38]: the chromatographic logP in data set [1] worked out at 5.4.
On to `ON=C1CCC(c2ccc(C3COC(c4c(F)cccc4F)=N3)cc2)CC1` (stereo not drawn) [Example 3, 2-(2,6-difluorophenyl)-4-[4-(4-oximino-cyclohexyl)phenyl]-1,3-oxazoline], for which the chromatographic logP in data set [1] came to 2.57.
On the same count and under the same terms, the result for `CON=C1CCC(c2ccc(C3COC(c4c(F)cccc4F)=N3)cc2)CC1` (stereo not drawn) [Example 56] reads 3.6.
Turning to `Fc1cccc(F)c1C1=NC(c2ccc(C3CCC(=NOCc4ccccc4)CC3)cc2)CO1` (stereo not drawn) [Example 12], the mortality at 0.0001 % in data set [2] was 98%. In data set [1], the chromatographic logP stood at 4.7.
For `Fc1cccc(F)c1C1=NC(c2ccc(C3CCC4(CC3)OCC(c3ccc(Br)cc3)O4)cc2)CO1` (stereo not drawn) [Example 39], the chromatographic logP turned out to be 5.36 in data set [1] (setting [4]) and 5.51 in data set [1] (setting [5]).
`CCCC1(C)COC2(CCC(c3ccc(C4COC(c5c(F)cccc5F)=N4)cc3)CC2)OC1` (stereo not drawn) [Example 37]: in data set [1], the chromatographic logP was determined as 5.46.
For `Fc1cccc(F)c1C1=NC(c2ccc(C3CCC4(CC3)OCC(COc3ccc(Cl)cc3)O4)cc2)CO1` (stereo not drawn) [Example 46], the chromatographic logP is 5.1 in data set [1] (setting [4]) and 5.16 in data set [1] (setting [5]).
For the compound `C=CCON=C1CCC(c2ccc(C3COC(c4c(F)cccc4F)=N3)cc2)CC1` (stereo not drawn) [Example 55], the chromatographic logP in data set [1] stood at 4.16.
For the compound `CC(C)(C)c1ccc(C2COC3(CCC(c4ccc(C5COC(c6c(F)cccc6F)=N5)cc4)CC3)O2)cc1` (stereo not drawn) [Example 23], the mortality at 0.0001 % in data set [2] was determined as 98%. The chromatographic logP in data set [1] is 6.16.
Consider `Fc1cccc(F)c1C1=NC(c2ccc(C3CCC(=NOCc4ccc(C(F)(F)F)cc4Cl)CC3)cc2)CO1` (stereo not drawn) [Example 20], for which the mortality at 0.0001 % in data set [2] turned out to be 98%. The mortality at 0.01 % in data set [3] was 100%. Besides, in data set [1], the chromatographic logP came to 5.91.
`CC1COC2(CCC(c3ccc(C4COC(c5c(F)cccc5F)=N4)cc3)CC2)OC1` (stereo not drawn) [Example 52]: in data set [1], the chromatographic logP amounted to 3.99.
Consider `Fc1cccc(F)c1C1=NC(c2ccc(C3CCC4(CC3)OCCCO4)cc2)CO1` (stereo not drawn) [Example 32], for which the chromatographic logP in data set [1] turned out to be 3.47.
`Fc1cccc(F)c1C1=NC(c2ccc(C3CCC4(CC3)OCC(c3ccccc3Cl)O4)cc2)CO1` (stereo not drawn) [Example 24]: in data set [2], the mortality at 0.0001 % was 98%. In data set [1], the chromatographic logP is 5.6.
`O=C1CCC(c2ccc(C(CCl)NC(=O)c3c(F)cccc3F)cc2)CC1` (stereo not drawn) [2-(2,6-difluorobenzoylamido)-2-[4-(4-oxo-cyclohexyl)phenyl]-chloroethane]: the chromatographic logP in data set [1] worked out at 2.54.
Regarding `CC1CC(C)OC2(CCC(c3ccc(C4COC(c5c(F)cccc5F)=N4)cc3)CC2)O1` (stereo not drawn) [Example 31], the chromatographic logP in data set [1] (setting [4]) amounted to 4.52; in data set [1] (setting [5]) it was 4.84.
As for `Fc1cccc(F)c1C1=NC(c2ccc(C3CCC4(CC3)OCC(COc3ccccc3)O4)cc2)CO1` (stereo not drawn) [Example 41], the chromatographic logP in data set [1] (setting [4]) came to 4.73; in data set [1] (setting [5]) it was 4.75.

The values above are taken from patent US6015823A, “4-Cyclohexylphenyl-oxazolines and their use for controlling animal pests” (Bayer Aktiengesellschaft, priority 1996, dated 2000).
